System: cell-cell fusion of TZM-bl target cells and HL2/3 effector cells (HXB2 Env)
Assay: cell-cell fusion, luciferase reporter
Format: cell-based, HIV-1
Details: read-out: IC50 CCF, 6 hours, 1% DMSO, results ±50%

[Phe]-Trp showed an IC50 of 9 µM.

Substance [Trp]-Phe has an IC50 of 4 µM.

[Trp]-Trp was tested, and the IC50 was 19 µM.
